Source: ChEMBL document CHEMBL2203093, “EC144 is a potent inhibitor of the heat shock protein 90” (J Med Chem, 2012)

What was measured:
[1] = AUC in CD-1 mouse at 25 mg/kg, po; type: ADME, organism-based; design: dose 25 mg/kg, route oral; conditions: plasma
Brain = experiment: Drug uptake in human NCI-N87 cell xenografted mouse brain at 6 to 12 mg/kg, po administered as a single dose at 6 to 24 hrs; type: ADME, organism-based; design: route oral; conditions: in vivo
[2] = AUC (infinity) in DBA1 mouse brain at 5 mg/kg, po; type: ADME, organism-based; design: dose 5 mg/kg, route oral, time infinity
NCI-N87 = experiment: Drug uptake in human NCI-N87 cells xenografted in mouse at 6 to 12 mg/kg, po administered as a single dose at 6 to 24 hrs; type: ADME, organism-based; design: route oral; conditions: in vivo
[3] = Half life in CD-1 mouse at 25 mg/kg, po; type: ADME, organism-based; design: dose 25 mg/kg, route oral; conditions: in vivo
[4] = Half life in DBA1 mouse spleen at 5 mg/kg, po; type: ADME, organism-based; design: dose 5 mg/kg, route oral
[5] = Cmax in DBA1 mouse lymph nodes at 5 mg/kg, po; type: ADME, organism-based, Lymph node; design: dose 5 mg/kg, route oral
[6] = Tmax in DBA1 mouse brain at 5 mg/kg, po; type: ADME, organism-based; design: dose 5 mg/kg, route oral
[7] = Toxicity in po dosed human N87 cell xenografted athymic mouse administered as qd for 5 days per week for 4 weeks; type: organism-based, NCI-N87; conditions: in vivo
[8] = Cmax in DBA1 mouse spleen at 5 mg/kg, po; type: ADME, organism-based; design: dose 5 mg/kg, route oral
[9] = Half life in DBA1 mouse lymph nodes at 5 mg/kg, po; type: ADME, organism-based, Lymph node; design: dose 5 mg/kg, route oral
[10] = Initial Cmax in CD-1 mouse at 25 mg/kg, po; type: ADME, organism-based; design: dose 25 mg/kg, route oral; conditions: in vivo
[11] = Tmax in DBA1 mouse plasma at 5 mg/kg, po; type: ADME, organism-based; design: dose 5 mg/kg, route oral
[12] = Tmax in DBA1 mouse lymph nodes at 5 mg/kg, po; type: ADME, organism-based, Lymph node; design: dose 5 mg/kg, route oral
[13] = Intrinsic clearance in mouse liver microsomes; type: ADME, Microsome; conditions: read-out: CLH
Serum = experiment: Drug uptake in human NCI-N87 cell xenografted mouse serum at 6 to 12 mg/kg, po administered as a single dose at 6 to 24 hrs; type: ADME, organism-based; design: route oral; conditions: in vivo
Mus musculus [14] = experiment: Dose normalized AUC in CD-1 mouse at 25 mg/kg, po; type: ADME, organism-based; design: dose 25 mg/kg, route oral; conditions: in vivo
[15] = Cmax in DBA1 mouse plasma at 5 mg/kg, po; type: ADME, organism-based; design: dose 5 mg/kg, route oral
[16] = Toxicity in po dosed mouse administered as a single dose; type: organism-based; conditions: in vivo
[17] = Intrinsic clearance in rat liver microsomes; type: ADME, Microsome; conditions: read-out: CLH
[18] = Apparent permeability from apical to basolateral side of human Caco2 cells; type: ADME, cell-based; conditions: Caco-2
[19] = Half life in DBA1 mouse plasma at 5 mg/kg, po; type: ADME, organism-based; design: dose 5 mg/kg, route oral
Spleen = experiment: Drug uptake in human NCI-N87 cell xenografted mouse spleen at 6 to 12 mg/kg, po administered as a single dose at 6 to 24 hrs; type: ADME, organism-based; design: route oral; conditions: in vivo
[20] = Half life in DBA1 mouse brain at 5 mg/kg, po; type: ADME, organism-based; design: dose 5 mg/kg, route oral
[21] = AUC (infinity) in DBA1 mouse lymph nodes at 5 mg/kg, po; type: ADME, organism-based, Lymph node; design: time infinity, dose 5 mg/kg, route oral
[22] = Intrinsic clearance in human liver microsomes; type: ADME, Microsome; conditions: read-out: CLH
[23] = AUC (infinity) in DBA1 mouse spleen at 5 mg/kg, po; type: ADME, organism-based; design: dose 5 mg/kg, route oral, time infinity
[24] = Tmax in CD-1 mouse at 25 mg/kg, po; type: ADME, organism-based; design: dose 25 mg/kg, route oral; conditions: in vivo
[25] = AUC (infinity) in DBA1 mouse plasma at 5 mg/kg, po; type: ADME, organism-based; design: dose 5 mg/kg, route oral, time infinity
[26] = Cmax in DBA1 mouse brain at 5 mg/kg, po; type: ADME, organism-based; design: dose 5 mg/kg, route oral
Mus musculus [27] = experiment: Dose normalized AUC in CD-1 mouse at 100 mg/kg, po; type: ADME, organism-based; design: dose 100 mg/kg, route oral; conditions: in vivo
[28] = Initial Cmax in CD-1 mouse at 100 mg/kg, po; type: ADME, organism-based; design: dose 100 mg/kg, route oral; conditions: in vivo
[29] = Tmax in CD-1 mouse at 100 mg/kg, po; type: ADME, organism-based; design: dose 100 mg/kg, route oral; conditions: in vivo
[30] = AUC in CD-1 mouse at 5 mg/kg, iv; type: ADME, organism-based; design: dose 5 mg/kg, route intravenous; conditions: plasma
Mus musculus [31] = experiment: Dose normalized AUC in CD-1 mouse at 5 mg/kg, iv; type: ADME, organism-based; design: dose 5 mg/kg, route intravenous; conditions: in vivo
[32] = Initial Cmax in CD-1 mouse at 5 mg/kg, iv; type: ADME, organism-based; design: dose 5 mg/kg, route intravenous; conditions: in vivo
[33] = Half life in CD-1 mouse at 5 mg/kg, iv; type: ADME, organism-based; design: dose 5 mg/kg, route intravenous; conditions: in vivo

## COc1c(C)cnc(Cn2cc(C#CCC(C)(C)O)c3c(Cl)nc(N)nc32)c1C
[1]
  AUC: 4420 ng·h/mL
Brain
  Drug uptake: Active
[2]
  AUC(0-inf): 4710 ng·h/mL
NCI-N87
  Drug uptake: Active
[3]
  half-life: 1.5 h
[4]
  half-life: 2 h
[5]
  Cmax: 2140 ng/mL
[6]
  Tmax: 0.5 h
[7]
  MTD at 4 weeks: 10 mg/kg
[8]
  Cmax: 1890 ng/mL
[9]
  half-life: 1.6 h
[10]
  Cmax: 1560 ng/mL
[11]
  Tmax: 4.98 min
[12]
  Tmax: 1 h
[13]
  CLint scaled: 727 mL/min/kg
Serum
  Drug uptake: Active
Mus musculus [14]
  AUC/dose: 177 ng·h/mL/mg/kg
[15]
  Cmax: 835 ng/mL
[16]
  MTD: 30 mg/kg
[17]
  CLint scaled: 276 mL/min/kg
[18]
  Papp A→B: 34.7 ×10⁻⁶ cm/s
[19]
  half-life: 1.2 h
Spleen
  Drug uptake: Active
[20]
  half-life: 2.1 h
[21]
  AUC(0-inf): 5190 ng·h/mL
[22]
  CLint scaled: 119 mL/min/kg
[23]
  AUC(0-inf): 8160 ng·h/mL
[24]
  Tmax: 0.5 h
[25]
  AUC(0-inf): 2120 ng·h/mL
[26]
  Cmax: 1450 ng/mL

## COc1c(C)cnc(Cn2cnc3c(Cl)nc(N)nc32)c1C [BIIB021]
Mus musculus [27]
  AUC/dose: 48 ng·h/mL/mg/kg
[18]
  Papp A→B: 20 ×10⁻⁶ cm/s
[28]
  Cmax: 10000 ng/mL
[29]
  Tmax: 4.98 min

## CCNC(=O)c1noc(-c2cc(C(C)C)c(O)cc2O)c1-c1ccc(CN2CCOCC2)cc1 [LUMINESPIB]
[30]
  AUC: 2410 ng·h/mL
Mus musculus [31]
  AUC/dose: 481 ng·h/mL/mg/kg
[32]
  Cmax: 2180 ng/mL
[17]
  CLint scaled: 219 mL/min/kg
[18]
  Papp A→B: 1.9 ×10⁻⁶ cm/s
[22]
  CLint scaled: 39 mL/min/kg
[33]
  half-life: 6.6 h

## CC1(C)CC(=O)c2c(C(F)(F)F)nn(-c3ccc(C(N)=O)c(N[C@H]4CC[C@H](O)CC4)c3)c2C1 [SNX-2112]
[1]
  AUC: 8520 ng·h/mL
[3]
  half-life: 2.9 h
[10]
  Cmax: 1720 ng/mL
[13]
  CLint scaled: 301 mL/min/kg
Mus musculus [14]
  AUC/dose: 341 ng·h/mL/mg/kg
[17]
  CLint scaled: 54 mL/min/kg
[18]
  Papp A→B: 1.1 ×10⁻⁶ cm/s
[22]
  CLint scaled: 54 mL/min/kg
[24]
  Tmax: 1 h

## C=CCNC1=C2C[C@@H](C)C[C@H](OC)[C@H](O)[C@@H](C)/C=C(\C)[C@H](OC(N)=O)[C@@H](OC)/C=C\C=C(/C)C(=O)NC(=CC1=O)C2=O [TANESPIMYCIN]
[16]
  MTD: 60 mg/kg
